Data from US11536729B2, “Method of identifying novel protein aggregation inhibitors based on chemical kinetics” (Cambridge Enterprise Limited, priority 2016, dated 2022).
Read-outs that look alike come from different tables or passages of the source.

What was measured:
[1] = test system: SH-SY5Y human neuroblastoma cells; assay type: cell-based; details: 0.5 μM Aβ42, 10 μM bexarotene
Description: Aβ42 oligomers are known to be toxic to cells leading to apoptosis and to cellular death. […] SH-SY5Y human neuroblastoma cells were cultured under standard conditions, at 37° C. in a humidified incubator with 5% CO2. Cells were seeded at a density of 25,000 per well in a white-walled, clear-bottomed 96-well plate and cultured for 24 h in MEM/F12(1:1)/10% Fetal Bovine Serum (FBS) (Gibco). The culture medium was then replaced with pre-warmed phenol red free DMEM without FBS into which the peptide samples or NaPO4 buffer were diluted 1:1. […] The aggregation reaction was set up as above except for the buffer from which NaN3 was removed due to its toxicity. […] All the specified time points correspond to Aβ42 in the lag phase in order to monitor inhibition at the early stage of the aggregation. […] The cells were cultured in the presence of the peptides, buffer and media for further 24 h before the cytotoxic effect was measured.
Cell medium diluted with the same buffer that was used in these experiments was included in some wells in order to evaluate the intrinsic fluorescence of the media and bexarotene.
For the positive control, staurosporine (1 μM) was added to the cells for 2 hours. Caspase-3/7 activity was measured using the Apo-ONE Homogeneous Caspase-3/7 assay (Promega). The fluorogenic caspase-3/7 substrate, rhodamine 110 bis-(N-CBZ-L-aspartyl-L-glutamyl-L-valyl-aspartic acid amide) was diluted 1:100 in the lysis buffer provided and added to the cell medium at a 1:1 ratio. The fluorescence was measured at excitation 480 nm/emission 520 nm in an Optima FluoStar plate reader. In each of the used plates, the toxicity was assessed according to a negative and a positive control.
For comparative purposes between different plates, we normalized the fluorescence values using a parabolic equation (y=ax^b), which corresponds to the evolution of the oligomers as a function of time. Negative and positive controls were set to 1 and 10, respectively. […] Statistical analyses were performed using GraphPad prism 6.0. Results are expressed as mean±SEM.

[2] = target: T1, Aβ42 (Homo sapiens, UniProt P05067); assay: ThT Aβ42 aggregation kinetics with 1-5% pre-formed fibril seeds (surface-catalyzed secondary nucleation); assay type: biochemical; details: 2 μM Aβ42, 0.5- and 5-fold excess
T1 construct: The recombinant Aβ (M1-42) peptide; made in house; host or cells: E. coli BL21 Gold (DE3)
T1 sequence (P05067 672-713 limits assumed): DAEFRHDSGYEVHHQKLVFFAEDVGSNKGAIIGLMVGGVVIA
Description: For the seeded experiments, preformed fibrils were prepared just prior to the experiment. Kinetic experiments were set up just as above for a […] Aβ42 samples in 20 mM sodium phosphate buffer, pH 8 with 200 μM EDTA, 0.02% NaN3 and 20 μM ThT. The ThT fluorescence was monitored for 3 hours to verify the formation of fibrils.
(§1) Samples were then collected from the wells into low-binding tubes and sonicated for 2 min in a sonicator bath at room temperature. Under the considered conditions (i.e. 4 μM Aβ42), the monomer concentration is negligible at equilibrium (31). The final concentration of fibrils, in monomer equivalents, was considered equal to the initial concentration of monomer. Fibrils were then added to freshly prepared monomer in order to reach either 5% or 10% fibrils final concentration.
(§2) Assays were initiated by placing the 96-well plate at 37° C. under quiescent conditions in a plate reader (Fluostar Omega, Fluostar Optima or Fluostar Galaxy, BMGLabtech, Offenburg, Germany). The ThT fluorescence was measured through the bottom of the plate with a 440 nm excitation filter and a 480 nm emission filter. The ThT fluorescence was followed for three repeats of each sample. […]
For the seeded experiments, preformed fibrils were prepared just prior to the experiment. […] The ThT fluorescence was monitored for 3 hours to verify the formation of fibrils. […]

[3] = test system: C. elegans GMC101 (Aβ-worm); assay: NIAD-4 staining of amyloid aggregates in living C. elegans; assay type: in vivo, Caenorhabditis elegans
Description: Live transgenic animals were incubated with NIAD-4 over a range of concentrations and times, and it was empirically determined that incubation of living animals with 1 μM NIAD-4 (0.1% DMSO in M9 buffer) for four hours at room temperature gave robust and reproducible staining. After staining, animals were Let recover on NGM plates for about 24 hrs to allow destaining via normal metabolism. Stained animals were mounted on 2% agarose pads containing 40 mM NaN3 as anaesthetic on glass microscope slides for imaging. Images were captured with a Zeiss Axio Observer.D1 fluorescence microscope (Carl Zeiss Microscopy GmbH, Jena, Germany) with a 20× objective and a 49004 ET-CY3/TRITC filter (Chroma Technology Corp, Bellows Falls, Vt., USA). Fluorescence intensity was calculated using ImageJ software (National Institutes of Health, Bethesda, Md., USA), and then normalized as the corrected total cell fluorescence (CTCF). Only the head region was considered, due to the high background signal in the guts. All experiments were carried out in triplicate and the data from one representative experiment are shown. Statistical significance was determined using t tests.

[4] = target: T1, Aβ42; assay: ThT Aβ42 aggregation kinetics with 10% pre-formed fibril seeds (elongation dominant); assay type: biochemical; details: 2 μM Aβ42, 10-fold excess
Description: as §1, §2

[5] = target: T2, Aβ42 fibrils (Homo sapiens, UniProt P05067); assay: Dot blot assay with fibril-specific OC antibody (label-free fibril formation); assay type: biochemical; details: 2 μM Aβ42, 4-fold excess
T2 construct: The recombinant Aβ (M1-42) peptide; made in house; host or cells: E. coli BL21 Gold (DE3)
T2 sequence (P05067 672-713 limits assumed): as above
Description: Blotting was performed using either Aβ42 fibril-specific antibody (OC, Millipore) or Aβ42 sequence-specific antibody (W0-2, Millipore). […] Aβ42 aliquots were spotted onto a nitrocellulose membrane (0.2 μm, Whatman) and then the membranes were dried and then blocked with Blocking One (Nacalai tesque) before immuno-detection. OC and W0-2 were used according to the manufacturers instructions. Alexa Fluor® 488-conjugated secondary antibodies (Life technologies) were subsequently added and fluorescence detection was performed using Typhoon Trio Imager (GE Healthcare). […] For the calibration curve (FIG. 3d), a series of dilutions between 4 μM and 0.1 μM were performed on freshly prepared Aβ42 fibrils and 4 μL aliquots were deposited onto the same nitrocellulose membrane (0.2 μm, Whatman) as the one used for OC fibril-specific antibody. […] However, under these conditions we could not detect oligomers due to their very low concentration during Aβ42 aggregation even when depositing on the membrane volumes as high as 20 μL.

C=C(c1ccc(C(=O)O)cc1)c1cc2c(cc1C)C(C)(C)CCC2(C)C [bexarotene]
incubation time after which detectable toxic Aβ42 species are formed in presence of compound ([1]; 37° C.): 7 h | toxicity (caspase-3) of Aβ42 species in absence of bexarotene, higher than in its presence ([1]; aliquot after 0.3 h incubation): 65±5% | toxicity (caspase-3) of Aβ42 species in absence of bexarotene, higher than in its presence ([1]; aliquot after 4 h incubation): 65±5% | level of toxicity generated in the presence of bexarotene ([1]; aliquot after 7 h incubation): increased to a value similar to that observed in its absence | effect on aggregation kinetics with 5% pre-formed fibril seeds [2]: concentration-dependent bexarotene-induced delay | time for which formation of Aβ42 fibrils was suppressed ([3]; 10 μM): 9 days of adulthood | level of aggregates (NIAD-4 fluorescence) ([3]; Aβ-worm model in the presence of bexarotene): essentially no aggregates being detected | effect on aggregation kinetics with 10% fibril seeds [4]: no effect was observed | delay in the time required for half-completion of the aggregation process [5]: 2 h
